{
  "source": "patent US11864555B2",
  "about": "“Soil application of crop protection agents” (PIONEER HI-BRED INTERNATIONAL, INC., priority 2017, dated 2024)",
  "key": {"[1]": {"experiment": "Aerobic soil degradation of cyantraniliprole in Tama soil", "format": "physicochemical", "method": "Aerobic soil degradation of cyantraniliprole in the various beads was determined versus a stock aqueous solution by following the changes in cyantraniliprole concentration over time.\nTama soil (clay-loam soil) was collected and stored in a refrigerator prior to use. […] Soil (10.0 to 68.3 grams) was weighted into glass jars or polypropylene vials and the moisture content was adjusted to 32.4% (Field capacity for this soil) by adding deionized water to the containers. The containers were covered with tape and pre-incubated inside a temperature controlled incubator at 25° C. for 4 days. […] The incubator temperature was monitored by a digital thermometer, and soil water loss was monitored by weighing each sample container during the experiment. […]\nAt sampling intervals of 0, 3, 7, 14, 21, 28, 35, 56, 100 and 120 days, three containers from each treatment were removed from the incubator, and the four cyantraniliprole-containing particles or pellets in each container were collected and transferred to 100 mL polypropylene bottles for extraction. […] After the overnight extraction, the extracts were allowed to settle and the supernatant was filtered through 0.4 μm pore size polypropylene filters and stored in a −20° C. freezer before quantifying cyantraniliprole. […]"}, "[2]": {"settings": "cited from earlier work"}, "[3]": {"format": "in vivo, soybean", "settings": "delivered via the CRYSTAL GREEN particles", "method": "The procedure used for Bead #1 was repeated, using CRYSTAL GREEN® fertilizer and the pesticide used was 50% chlorantraniliprole insecticide treatment. Analysis of the amount of chlorantraniliprole for Bead #14 was determined to be 2.15 μg chlorantraniliprole per milligram of bead. Individual rhizotron growth chambers were used as the test apparatus as described before. Beads #13 and 14, or the control solutions were applied to the center area of the soil plug at about 4 mm depth. All the rhizotron chambers were then transferred to the growth room and fit to black utility boxes with precut 4-inch-depth notches located on the left and right rim of the boxes, allowing the chambers to set at about 90 degree upright position. […]\nThe rhizotrons were maintained in a growth chamber with controlled temperature and light with a 14-hour day/10-hour night diurnal cycle. […] The amount of water or nutrient used was recorded. Plant growth stages were also recorded and photographed periodically. […]\nPlant leaflets were harvested 3 times at 24 days (R1 growth stage), 38 days (R4), and 49 days (R5.5) after planting for quantifying the pesticide concentrations. […] Each CPC was quantified by LC-MSMS method using electro-spray positive ionization mode. […] Remaining soil associated with the dried roots was removed and root weight was measured using an analytical balance."}, "[4]": {"experiment": "Aerobic soil degradation of cyantraniliprole in loam soil", "format": "physicochemical", "settings": "90 days, pH 5.7", "method": "Loam soil had 29% sand, 50% silt, and 21% clay with 2.9% organic matter and a pH of 5.7. […] Soil (20.0 to 50 g) was weighed into individual glass containers and moisture was adjusted to field moisture capacity at approximately 27% by weight by adding de-ionized water to the containers. Afterward, the containers were covered with breathable tape and pre-incubated inside a temperature-controlled incubator at 25° C. for 6 days. The tape allowed free oxygen exchange between the container headspace and ambient air while minimizing soil water loss due to evaporation. […] The incubator temperature was monitored by a digital thermometer and Hobo data logger, and soil water loss was monitored by weighing each sample container during the experiment. […] Soil moisture content was brought back to field capacity once every 1-2 weeks by adding de-ionized water equivalent to the amount of moisture that was lost, monitored by weighing each container every week.\nAt sampling intervals of 0, 3, 7, 14, 28, 56 and 90 days, three containers from each treatment were removed from the incubator, and the 5 cyantraniliprole-containing particles were collected and transferred to 100 mL polypropylene bottles for extraction. […] Cyantraniliprole was separated by HPLC and quantified by UV detection at 220 nm using an external calibration curve of an analytical standard."}},
  "data": [
    {"compound": "CNC(=O)c1cc(C#N)cc(C)c1NC(=O)c1cc(Br)nn1-c1ncccc1Cl", "note": "[stock solution, cyantraniliprole]", "values": [
      {"measurement": "cyantraniliprole degraded by day 100", "setting": "[1]; 100 days, pH 5.8", "value": "~76", "unit": "%"},
      {"measurement": "half-life of biodegradation by soil microbes", "setting": "[1]; Tama soil, 25° C., aerobic", "value": "approximately 43 days"}
    ]},
    {"compound": "CO/C=C(/C(=O)OC)c1ccccc1COc1cccc(C(F)(F)F)n1", "note": "[Picoxystrobin]", "values": [
      {"measurement": "water solubility", "setting": "[2]", "value": 3.25, "unit": "milligrams/liter"}
    ]},
    {"compound": "CNC(=O)c1cc(Cl)cc(C)c1NC(=O)c1cc(Br)nn1-c1ncccc1Cl", "note": "[Chlorantraniliprole]", "values": [
      {"measurement": "concentrations in leaf samples averaged from 24 to 49 days", "setting": "[3]", "value": 0.097, "unit": "μg/gram fresh leaves"}
    ]},
    {"compound": "CNC(=O)c1cc(C#N)cc(C)c1NC(=O)c1cc(Br)nn1-c1ncccc1Cl", "note": "[Control E, Cyantraniliprole]", "values": [
      {"measurement": "cyantraniliprole degraded by day 90", "setting": "[4]", "value": "~79", "unit": "%"}
    ]}
  ]
}
